According to US5039665A, “Use of fructose-1,6-diphosphate for treating myocardial infarction” (priority 1990, dated 1991):
Where “and” joins values, the source holds several entries; their conditions need not be identical. Equal entries are not always repeated.

Key:
[1] = test system: whole blood; test: blood preservation: ATP content of refrigerated blood; design: species or system dog
Procedure: Blood specimens taken from a number of dogs were mixed with FDP in the following proportions: F1-25mg of FDP per 10ml of blood and F2-50mg of FDP per 10ml of blood. The same proportion was prepared with glucose: G1-25mg of glucose per 10ml of blood and G2-50mg of glucose per 10ml of blood. The blood specimens were refrigerated for 24 hours and then the blood was tested for ATP content after 24 hours 14 days.

[2] = test system: dogs anesthetized with Surital; test: analeptic effect of intra-carotid administration on Surital (thiamylal) anesthesia in dogs; assay type: in vivo, dog; conditions: for time required for return of observable eyelid reflex: after beginning the infusion into the carotid artery (±SDM); for time required to regain walking ability: mean, p<0.001 FDP vs dextrose; for Able To Sit / Able To Walk / Eyes Open / Lifts Head / Response To Pain: time after beginning of infusion, individual dogs
Procedure: In this paired test 10 dogs were anesthetized with Surital 35mg/kg IV. Within 10 minutes after induction of anesthesia, a #7 Sones catheter was placed in a common carotid artery via the femoral artery under fluoroscopic guidance. […] Immediately following the contrast media injection the infusion of FDP or glucose was initiated (9-13 min. after induction of anesthesia). The FDP was prepared as a 5% solution and infused at a constant rate of 1.91 ml/min. (97.5 mg/min.) into a main carotid artery. The controls received equal amounts of 5% dextrose via the same route. The analeptic effect of FDP on signs, stages and depth of anesthesia was evaluated by determining the time required for reappearance of eyelid reflex, opening of eyes, deglutiton, response to pain, lifting of the head, sitting, and when the animal was able to walk.

[3] = test system: dogs subjected to toxic doses of Digoxin; test: digoxin toxicity in dogs; assay type: in vivo, dog; conditions: for hemodynamic parameters (cardiac output, arterial pressure): dog, in vivo
Procedure: Dogs subjected to toxic doses of Digoxin were treated with FDP and glucose. […] Also the dogs treated with FDP survived, while the controls treated with Dextrose 5% died within 3 hours after administration of Digoxin. In this paired study 10 anesthesized dogs received 3 mg. IV Digoxin as bolus injection. Five of the digs received 20 minutes after the digoxin injection 1 gm. of FDP and then on 2 mg/kg as a constant infusion for the next 3 hours. The five controls received in the same manner Dextrose 5%. […] (Pi<0.001.).

[4] = test system: dogs given potassium cyanide; test: potassium cyanide poisoning in dogs; assay type: in vivo, dog; conditions: 2 mg/kg IV potassium cyanide; 0.5 gm/kg over 30 minutes
[5] = test system: hearts of mongrel dogs subjected to normothermic arrest; test: global ischemia on cardiopulmonary bypass, normothermic arrest for one hour; assay type: in vivo, dog
Procedure: To evaluate the effect of FDP on global ischemia, 14 mongrel dogs were placed on cardiopulmonary bypass and their hearts were subjected to normothermic arrest for one hour. Seven animals had 50 ml. of 5% glucose in 0.9% NaCl infused into the base of the aorta at 0 minutes, 20 minutes and 40 minutes following cross-clamping and, systemically, during reperfusion. The remaining 7 animals were treated identically except that 50 mg. of FDP was given instead of glucose and 2mg/kg/minute was infused systemically during reperfusion. Hemodynamic measurements were taken before ischemia and at 15 and 30 minutes following reperfusion using an isovolumetric technique.

[6] = 25mg per 10ml of blood, 24 hours
[7] = 25mg per 10ml of blood, 48 hours
[8] = 25mg per 10ml of blood, 7 days, Incubate 30' 37°
[9] = 50mg per 10ml of blood, 24 hours
[10] = 50mg per 10ml of blood, 48 hours
[11] = 50mg per 10ml of blood, 7 days, Incubate 30' 37°

Row | Structure (SMILES) | ATP [1, 6] [m mole/ml] | ATP [1, 7] [m mole/ml] | ATP [1, 8] [m mole/ml] | ATP ([1]; 25mg per 10ml of blood, 9 days) [m mole/ml] | ATP [1, 9] [m mole/ml] | ATP [1, 10] [m mole/ml] | ATP [1, 11] [m mole/ml] | ATP ([1]; 50mg per 10ml of blood, 9 days) [m mole/ml] | ATP ([1]; 14 days, Incubate 40' 37°) [m mole/ml] | ATP ([1]; 14 days, No incubation) [m mole/ml] | time required for return of observable eyelid reflex [2] [min] | time required to regain walking ability [2] [min] | Able To Sit [2] | Able To Walk [2] | Eyes Open [2] | Lifts Head [2] | Response To Pain [2] | hemodynamic parameters (cardiac output, arterial pressure) [3] | survival [4] | ML to LVEDP of 20 mmHg ([5]; 15 minutes after reperfusion) [mL] | other results
1 | O=C[C@H](O)[C@@H](O)[C@H](O)[C@H](O)CO [glucose, reference compound] | 0.22 | 0.32 | 0.28 | 0.26 | 0.44 | 0.34 | 0.18 | 0.40 | 0.88 | 0.40 | 70.00 ± 25 | 295.00 ± 24.49 | 300 min and 225 min and 310 min and 215 min | 310 min and 300 min and 330 min and 280 min and 265 min | 80 min and 75 min and 105 min and 54 min and 40 min | 170 min and 135 min and 190 min and 165 min and 120 min | 120 min and 130 min and 160 min and 125 min and 100 min | decline in arterial pressure, vomiting, and perfused diarrhea | died | 23.3 ± 1.8 | time to death ([3]; after administration of Digoxin): ≤ 3 h; Peak Effective pressure ([5]; 15 minutes after reperfusion): 36.9 ± 4.4 mmHg; Peak Mean pressure ([5]; 15 minutes after reperfusion): 17.8 ± 4.2 mmHg; Peak dp/dt ([5]; 15 minutes after reperfusion): 1126 ± 216 mmHg/sec; ML to LVEDP of 20 mmHg ([5]; 30 minutes after reperfusion): 19.3 ± 1.3 mL; Peak Effective pressure ([5]; 30 minutes after reperfusion): 50.8 ± 6.3 mmHg; Peak Mean pressure ([5]; 30 minutes after reperfusion): 20.5 ± 2.9 mmHg; Peak dp/dt ([5]; 30 minutes after reperfusion): 1698 ± 350 mmHg/sec; ML to LVEDP of 20 mmHg ([5]; Pre-Ischemia): 51.4 ± 8.6 mL; Peak Effective pressure ([5]; Pre-Ischemia): 144.6 ± 14.6 mmHg; Peak Mean pressure ([5]; Pre-Ischemia): 66.4 ± 7.4 mmHg; Peak dp/dt ([5]; Pre-Ischemia): 4894 ± 689 mmHg/sec
2 | O=C(COP(=O)(O)O)[C@@H](O)[C@H](O)[C@H](O)COP(=O)(O)O [FDP, fructose-1,6-diphosphate] | 2.32 | 2.34 | 0.70 | 0.82 | 3.34 | 2.08 | 2.16 | 2.04 | 1.3 | 1.22 | 3.70 ± 0.67 | 76.6 ± 16 | 48 min and 47 min and 35 min and 52 min and 40 min | 60 min and 70 min and 50 min and 95 min and 82 min | 7 min and 14 min and 5 min and 12 min and 4 min | 28 min and 33 min and 14 min and 19 min and 20 min | 17 min and 19 min and 10 min and 18 min and 15 min | no alternation in hemodynamic parameters | survived | 33.6 ± 3.7 | time to regain consciousness and be able to walk (in words) ([2]; intra-carotid administration): greatly reduces the time required for the animal to regain consciousness and be able to walk; survival ([3]; 3 mg. IV Digoxin): survived; digitalis induced dysarhythmia ([3]; 3 mg. IV Digoxin, FDP 1 gm. then 2 mg/kg infusion for 3 hours): suppresses significantly the digitalis induced dysarhythmia; occurrence of dysarhythmia versus controls, significance ([3]; P < 0.001): significantly less in the group treated with FDP; Peak Effective pressure ([5]; 15 minutes after reperfusion): 102.1 ± 11.5 mmHg; Peak Mean pressure ([5]; 15 minutes after reperfusion): 52.8 ± 5.4 mmHg; Peak dp/dt ([5]; 15 minutes after reperfusion): 2242 ± 226 mmHg/sec; ML to LVEDP of 20 mmHg ([5]; 30 minutes after reperfusion): 36.1 ± 3.3 mL; Peak Effective pressure ([5]; 30 minutes after reperfusion): 125 ± 11.5 mmHg; Peak Mean pressure ([5]; 30 minutes after reperfusion): 61.4 ± 5.1 mmHg; Peak dp/dt ([5]; 30 minutes after reperfusion): 3999 ± 404 mmHg/sec; contractility and compliance during recovery ([5]; Intra-aortic and systemic administration): Both contractility and compliance are vastly improved; ML to LVEDP of 20 mmHg ([5]; Pre-Ischemia): 39.3 ± 3.2 mL; Peak Effective pressure ([5]; Pre-Ischemia): 165 ± 12.9 mmHg; Peak Mean pressure ([5]; Pre-Ischemia): 77.5 ± 4.6 mmHg; Peak dp/dt ([5]; Pre-Ischemia): 4710 ± 689 mmHg/sec
